# Data published in ChEMBL document CHEMBL4613209, “Quinolone hybrids and their anti-cancer activities: An overview” (Eur J Med Chem, 2019).
# Tested on: HeLa
# Experiment: Antiproliferative activity against human HeLa cells by CCK8 assay
# Type: functional, cell-based
row,Structure (SMILES),IC50 [µM]
1,C[C@H]1COc2c(N3CCN(C)CC3)c(F)cc3c(=O)c(C(=O)NCc4cn(CCCCCCCC(=O)O)nn4)cn1c23,7.8 to 16.5
2,C[C@H]1COc2c(N3CCN(C)CC3)c(F)cc3c(=O)c(C(=O)NCc4cn(CCCCCC(=O)O)nn4)cn1c23,7.8 to 16.5
3,C[C@H]1COc2c(N3CCN(C)CC3)c(F)cc3c(=O)c(C(=O)OCc4cn(CCCCCC(=O)O)nn4)cn1c23,7.8 to 16.5

# Tested on: HepG2
# Experiment: Antiproliferative activity against human HepG2 cells by CCK8 assay
# Type: functional, cell-based
row,Structure (SMILES),IC50 [µM]
1,C[C@H]1COc2c(N3CCN(C)CC3)c(F)cc3c(=O)c(C(=O)NCc4cn(CCCCCCCC(=O)O)nn4)cn1c23,7.8 to 16.5
2,C[C@H]1COc2c(N3CCN(C)CC3)c(F)cc3c(=O)c(C(=O)NCc4cn(CCCCCC(=O)O)nn4)cn1c23,7.8 to 16.5
3,C[C@H]1COc2c(N3CCN(C)CC3)c(F)cc3c(=O)c(C(=O)OCc4cn(CCCCCC(=O)O)nn4)cn1c23,7.8 to 16.5

# Tested on: PC-3
# Experiment: Antiproliferative activity against human PC3 cells by CCK8 assay
# Type: functional, cell-based
row,Structure (SMILES),IC50 [µM]
1,C[C@H]1COc2c(N3CCN(C)CC3)c(F)cc3c(=O)c(C(=O)NCc4cn(CCCCCCCC(=O)O)nn4)cn1c23,7.8 to 16.5
2,C[C@H]1COc2c(N3CCN(C)CC3)c(F)cc3c(=O)c(C(=O)NCc4cn(CCCCCC(=O)O)nn4)cn1c23,7.8 to 16.5
3,C[C@H]1COc2c(N3CCN(C)CC3)c(F)cc3c(=O)c(C(=O)OCc4cn(CCCCCC(=O)O)nn4)cn1c23,7.8 to 16.5

# Tested on: A549
# Experiment: Cytotoxicity against human A549 cells assessed as reduction in cell viability
# Type: functional, cell-based
row,Structure (SMILES),IC50 [µM]
1,O=C(/C=C(O)/C=C/c1cc2ccccc2[nH]c1=O)/C=C/c1cc2ccccc2[nH]c1=O,31.5

# Molecular target: RAC-gamma serine/threonine-protein kinase (Homo sapiens, UniProt Q9Y243)
# Sequence (Q9Y243 whole entry): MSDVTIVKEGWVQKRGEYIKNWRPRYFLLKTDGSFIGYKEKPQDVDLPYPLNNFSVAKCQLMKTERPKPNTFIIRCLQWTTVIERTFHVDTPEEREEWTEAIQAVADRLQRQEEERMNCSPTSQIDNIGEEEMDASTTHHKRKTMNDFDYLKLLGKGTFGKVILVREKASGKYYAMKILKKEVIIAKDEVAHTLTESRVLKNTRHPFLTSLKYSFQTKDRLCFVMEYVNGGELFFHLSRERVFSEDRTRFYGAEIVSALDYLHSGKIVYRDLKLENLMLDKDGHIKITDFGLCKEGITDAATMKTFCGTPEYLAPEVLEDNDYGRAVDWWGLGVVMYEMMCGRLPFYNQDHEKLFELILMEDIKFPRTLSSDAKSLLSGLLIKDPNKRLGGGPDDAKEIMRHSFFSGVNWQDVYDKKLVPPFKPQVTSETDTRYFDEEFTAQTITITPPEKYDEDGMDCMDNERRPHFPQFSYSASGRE
# Experiment: Inhibition of PKBgamma (unknown origin)
row,Structure (SMILES),IC50 [µM]
1,O=C(/C=C/c1nc2ccccc2[nH]1)c1c(-c2ccccc2)c2ccccc2[nH]c1=O,1.64 to 44.5
2,O=C(/C=C/c1nc2cc(F)ccc2[nH]1)c1c(-c2ccccc2)c2cc(Cl)ccc2[nH]c1=O,1.64 to 44.5
3,O=C(/C=C/c1nc2cc(F)c(F)cc2[nH]1)c1c(-c2ccc(F)cc2)c2cc(Cl)ccc2[nH]c1=O,1.64 to 44.5
4,O=C(/C=C/c1nc2cc(F)c(F)cc2[nH]1)c1c(-c2ccc(F)cc2)c2cc(F)ccc2[nH]c1=O,1.64 to 44.5
5,Cc1ccc2[nH]c(=O)c(C(=O)/C=C/c3nc4ccccc4[nH]3)c(-c3ccccc3)c2c1,1.64 to 44.5
6,O=C(/C=C/c1nc2ccccc2[nH]1)c1c(O)nc2ccc(Cl)cc2c1-c1ccccc1,1.64 to 44.5
7,O=C(/C=C/c1nc2cc(F)c(F)cc2[nH]1)c1c(-c2ccc(F)c(F)c2)c2cc(F)ccc2[nH]c1=O,1.64 to 44.5
8,Cc1ccc2[nH]c(/C=C/C(=O)c3c(-c4ccccc4)c4cc(Cl)ccc4[nH]c3=O)nc2c1,1.64 to 44.5

# Molecular target: T1, Inhibitor of nuclear factor kappa-B kinase subunit beta (Homo sapiens, UniProt O14920)
# T1 sequence (O14920 whole entry): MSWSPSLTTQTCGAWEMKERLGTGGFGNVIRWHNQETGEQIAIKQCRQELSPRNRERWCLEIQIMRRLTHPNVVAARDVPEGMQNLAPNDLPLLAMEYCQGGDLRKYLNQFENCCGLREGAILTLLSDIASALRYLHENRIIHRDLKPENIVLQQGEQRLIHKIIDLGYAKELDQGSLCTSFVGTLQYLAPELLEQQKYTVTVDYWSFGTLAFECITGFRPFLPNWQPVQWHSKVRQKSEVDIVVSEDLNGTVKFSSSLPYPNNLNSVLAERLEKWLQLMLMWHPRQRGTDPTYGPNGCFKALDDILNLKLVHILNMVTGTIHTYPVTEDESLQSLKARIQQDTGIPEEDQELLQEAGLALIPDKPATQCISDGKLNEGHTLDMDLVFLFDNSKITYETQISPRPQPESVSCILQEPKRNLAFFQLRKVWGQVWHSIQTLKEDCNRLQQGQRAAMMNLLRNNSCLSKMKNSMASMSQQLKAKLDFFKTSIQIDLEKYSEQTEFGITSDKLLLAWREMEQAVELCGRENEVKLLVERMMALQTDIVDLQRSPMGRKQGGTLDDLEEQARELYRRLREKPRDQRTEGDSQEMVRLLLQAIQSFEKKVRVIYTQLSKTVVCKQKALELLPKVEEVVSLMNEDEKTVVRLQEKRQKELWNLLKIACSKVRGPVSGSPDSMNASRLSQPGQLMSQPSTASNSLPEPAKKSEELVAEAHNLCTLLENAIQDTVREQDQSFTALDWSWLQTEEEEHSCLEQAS
# Experiment: Inhibition of IKKbeta (unknown origin)
row,Structure (SMILES),IC50 [µM]
1,O=C(/C=C/c1nc2ccccc2[nH]1)c1c(-c2ccccc2)c2ccccc2[nH]c1=O,1.64 to 44.5
2,O=C(/C=C/c1nc2cc(F)ccc2[nH]1)c1c(-c2ccccc2)c2cc(Cl)ccc2[nH]c1=O,1.64 to 44.5
3,O=C(/C=C/c1nc2cc(F)c(F)cc2[nH]1)c1c(-c2ccc(F)cc2)c2cc(Cl)ccc2[nH]c1=O,1.64 to 44.5
4,O=C(/C=C/c1nc2cc(F)c(F)cc2[nH]1)c1c(-c2ccc(F)cc2)c2cc(F)ccc2[nH]c1=O,1.64 to 44.5
5,Cc1ccc2[nH]c(=O)c(C(=O)/C=C/c3nc4ccccc4[nH]3)c(-c3ccccc3)c2c1,1.64 to 44.5
6,O=C(/C=C/c1nc2ccccc2[nH]1)c1c(O)nc2ccc(Cl)cc2c1-c1ccccc1,1.64 to 44.5
7,O=C(/C=C/c1nc2cc(F)c(F)cc2[nH]1)c1c(-c2ccc(F)c(F)c2)c2cc(F)ccc2[nH]c1=O,1.64 to 44.5
8,Cc1ccc2[nH]c(/C=C/C(=O)c3c(-c4ccccc4)c4cc(Cl)ccc4[nH]c3=O)nc2c1,1.64 to 44.5

# Tested on: A549
# Experiment: Antiproliferative activity against human A549 cells by CCK8 assay
# Type: functional, cell-based
row,Structure (SMILES),IC50 [µM]
1,C[C@H]1COc2c(N3CCN(C)CC3)c(F)cc3c(=O)c(C(=O)NCc4cn(CCCCCCCC(=O)O)nn4)cn1c23,7.8 to 16.5
2,C[C@H]1COc2c(N3CCN(C)CC3)c(F)cc3c(=O)c(C(=O)NCc4cn(CCCCCC(=O)O)nn4)cn1c23,7.8 to 16.5
3,C[C@H]1COc2c(N3CCN(C)CC3)c(F)cc3c(=O)c(C(=O)OCc4cn(CCCCCC(=O)O)nn4)cn1c23,7.8 to 16.5

# Tested on: MCF7
# Experiment: Antiproliferative activity against human MCF7 cells by CCK8 assay
# Type: functional, cell-based
row,Structure (SMILES),IC50 [µM]
1,C[C@H]1COc2c(N3CCN(C)CC3)c(F)cc3c(=O)c(C(=O)NCc4cn(CCCCCCCC(=O)O)nn4)cn1c23,7.8 to 16.5
2,C[C@H]1COc2c(N3CCN(C)CC3)c(F)cc3c(=O)c(C(=O)NCc4cn(CCCCCC(=O)O)nn4)cn1c23,7.8 to 16.5
3,C[C@H]1COc2c(N3CCN(C)CC3)c(F)cc3c(=O)c(C(=O)OCc4cn(CCCCCC(=O)O)nn4)cn1c23,7.8 to 16.5

# Molecular target: RAC-beta serine/threonine-protein kinase (Homo sapiens, UniProt P31751)
# Sequence (P31751 whole entry): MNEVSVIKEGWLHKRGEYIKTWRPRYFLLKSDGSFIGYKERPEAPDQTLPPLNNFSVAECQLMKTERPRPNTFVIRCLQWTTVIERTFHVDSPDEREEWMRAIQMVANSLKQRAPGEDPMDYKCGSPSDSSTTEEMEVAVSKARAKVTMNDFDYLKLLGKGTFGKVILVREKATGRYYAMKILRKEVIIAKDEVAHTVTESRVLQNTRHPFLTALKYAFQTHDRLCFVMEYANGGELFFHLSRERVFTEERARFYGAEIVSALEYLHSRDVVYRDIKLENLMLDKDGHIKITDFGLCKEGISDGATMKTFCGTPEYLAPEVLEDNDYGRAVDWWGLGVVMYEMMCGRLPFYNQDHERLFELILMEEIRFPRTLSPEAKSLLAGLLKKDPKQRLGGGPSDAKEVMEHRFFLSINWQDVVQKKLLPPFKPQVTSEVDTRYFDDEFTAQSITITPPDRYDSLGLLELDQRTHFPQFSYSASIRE
# Experiment: Inhibition of PKBbeta (unknown origin)
row,Structure (SMILES),IC50 [µM]
1,O=C(/C=C/c1nc2ccccc2[nH]1)c1c(-c2ccccc2)c2ccccc2[nH]c1=O,1.64 to 44.5
2,O=C(/C=C/c1nc2cc(F)ccc2[nH]1)c1c(-c2ccccc2)c2cc(Cl)ccc2[nH]c1=O,1.64 to 44.5
3,O=C(/C=C/c1nc2cc(F)c(F)cc2[nH]1)c1c(-c2ccc(F)cc2)c2cc(Cl)ccc2[nH]c1=O,1.64 to 44.5
4,O=C(/C=C/c1nc2cc(F)c(F)cc2[nH]1)c1c(-c2ccc(F)cc2)c2cc(F)ccc2[nH]c1=O,1.64 to 44.5
5,Cc1ccc2[nH]c(=O)c(C(=O)/C=C/c3nc4ccccc4[nH]3)c(-c3ccccc3)c2c1,1.64 to 44.5
6,O=C(/C=C/c1nc2ccccc2[nH]1)c1c(O)nc2ccc(Cl)cc2c1-c1ccccc1,1.64 to 44.5
7,O=C(/C=C/c1nc2cc(F)c(F)cc2[nH]1)c1c(-c2ccc(F)c(F)c2)c2cc(F)ccc2[nH]c1=O,1.64 to 44.5
8,Cc1ccc2[nH]c(/C=C/C(=O)c3c(-c4ccccc4)c4cc(Cl)ccc4[nH]c3=O)nc2c1,1.64 to 44.5

# Molecular target: RAC-alpha serine/threonine-protein kinase (Homo sapiens, UniProt P31749)
# Sequence (P31749 whole entry): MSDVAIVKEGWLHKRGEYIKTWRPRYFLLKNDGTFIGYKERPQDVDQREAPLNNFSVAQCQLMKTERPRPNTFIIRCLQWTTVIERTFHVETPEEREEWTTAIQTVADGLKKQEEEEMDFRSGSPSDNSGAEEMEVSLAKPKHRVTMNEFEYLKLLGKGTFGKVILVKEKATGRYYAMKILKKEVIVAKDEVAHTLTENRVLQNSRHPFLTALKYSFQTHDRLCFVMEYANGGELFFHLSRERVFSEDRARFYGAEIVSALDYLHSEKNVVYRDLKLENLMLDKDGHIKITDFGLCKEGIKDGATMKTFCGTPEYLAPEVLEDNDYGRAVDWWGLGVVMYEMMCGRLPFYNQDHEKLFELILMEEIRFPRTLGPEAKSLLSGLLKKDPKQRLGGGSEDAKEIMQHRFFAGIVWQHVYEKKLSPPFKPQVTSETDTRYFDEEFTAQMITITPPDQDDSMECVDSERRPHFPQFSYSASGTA
# Experiment: Inhibition of PKBalpha (unknown origin)
row,Structure (SMILES),IC50 [µM]
1,O=C(/C=C/c1nc2ccccc2[nH]1)c1c(-c2ccccc2)c2ccccc2[nH]c1=O,1.64 to 44.5
2,O=C(/C=C/c1nc2cc(F)ccc2[nH]1)c1c(-c2ccccc2)c2cc(Cl)ccc2[nH]c1=O,1.64 to 44.5
3,O=C(/C=C/c1nc2cc(F)c(F)cc2[nH]1)c1c(-c2ccc(F)cc2)c2cc(Cl)ccc2[nH]c1=O,1.64 to 44.5
4,O=C(/C=C/c1nc2cc(F)c(F)cc2[nH]1)c1c(-c2ccc(F)cc2)c2cc(F)ccc2[nH]c1=O,1.64 to 44.5
5,Cc1ccc2[nH]c(=O)c(C(=O)/C=C/c3nc4ccccc4[nH]3)c(-c3ccccc3)c2c1,1.64 to 44.5
6,O=C(/C=C/c1nc2ccccc2[nH]1)c1c(O)nc2ccc(Cl)cc2c1-c1ccccc1,1.64 to 44.5
7,O=C(/C=C/c1nc2cc(F)c(F)cc2[nH]1)c1c(-c2ccc(F)c(F)c2)c2cc(F)ccc2[nH]c1=O,1.64 to 44.5
8,Cc1ccc2[nH]c(/C=C/C(=O)c3c(-c4ccccc4)c4cc(Cl)ccc4[nH]c3=O)nc2c1,1.64 to 44.5

# Molecular target: T2, Inhibitor of nuclear factor kappa-B kinase subunit alpha (Homo sapiens, UniProt O15111)
# T2 sequence (O15111 whole entry): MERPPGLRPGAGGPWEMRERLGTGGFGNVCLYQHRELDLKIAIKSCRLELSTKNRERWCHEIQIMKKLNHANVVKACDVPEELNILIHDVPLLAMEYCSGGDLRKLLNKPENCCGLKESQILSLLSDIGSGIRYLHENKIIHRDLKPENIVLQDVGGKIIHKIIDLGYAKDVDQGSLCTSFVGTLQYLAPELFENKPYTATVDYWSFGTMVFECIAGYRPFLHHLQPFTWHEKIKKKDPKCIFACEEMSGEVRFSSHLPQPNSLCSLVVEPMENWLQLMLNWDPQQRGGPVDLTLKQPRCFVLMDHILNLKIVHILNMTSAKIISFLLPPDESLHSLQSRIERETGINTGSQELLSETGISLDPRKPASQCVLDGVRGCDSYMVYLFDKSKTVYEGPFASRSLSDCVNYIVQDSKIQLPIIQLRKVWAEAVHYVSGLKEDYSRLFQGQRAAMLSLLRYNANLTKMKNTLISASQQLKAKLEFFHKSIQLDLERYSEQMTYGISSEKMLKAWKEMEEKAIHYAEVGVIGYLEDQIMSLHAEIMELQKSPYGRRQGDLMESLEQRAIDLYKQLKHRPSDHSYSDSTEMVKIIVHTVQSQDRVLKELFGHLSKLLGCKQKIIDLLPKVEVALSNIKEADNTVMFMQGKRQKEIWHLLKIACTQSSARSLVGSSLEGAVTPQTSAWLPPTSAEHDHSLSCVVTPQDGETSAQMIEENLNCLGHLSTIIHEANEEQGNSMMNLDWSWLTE
# Experiment: Inhibition of IKKalpha (unknown origin)
row,Structure (SMILES),IC50 [µM]
1,O=C(/C=C/c1nc2ccccc2[nH]1)c1c(-c2ccccc2)c2ccccc2[nH]c1=O,1.64 to 44.5
2,O=C(/C=C/c1nc2cc(F)ccc2[nH]1)c1c(-c2ccccc2)c2cc(Cl)ccc2[nH]c1=O,1.64 to 44.5
3,O=C(/C=C/c1nc2cc(F)c(F)cc2[nH]1)c1c(-c2ccc(F)cc2)c2cc(Cl)ccc2[nH]c1=O,1.64 to 44.5
4,O=C(/C=C/c1nc2cc(F)c(F)cc2[nH]1)c1c(-c2ccc(F)cc2)c2cc(F)ccc2[nH]c1=O,1.64 to 44.5
5,Cc1ccc2[nH]c(=O)c(C(=O)/C=C/c3nc4ccccc4[nH]3)c(-c3ccccc3)c2c1,1.64 to 44.5
6,O=C(/C=C/c1nc2ccccc2[nH]1)c1c(O)nc2ccc(Cl)cc2c1-c1ccccc1,1.64 to 44.5
7,O=C(/C=C/c1nc2cc(F)c(F)cc2[nH]1)c1c(-c2ccc(F)c(F)c2)c2cc(F)ccc2[nH]c1=O,1.64 to 44.5
8,Cc1ccc2[nH]c(/C=C/C(=O)c3c(-c4ccccc4)c4cc(Cl)ccc4[nH]c3=O)nc2c1,1.64 to 44.5

# Tested on: MCF-10A
# Experiment: Antiproliferative activity against human MCF10A cells by CCK8 assay
# Type: cell-based
row,Structure (SMILES),IC50 [µM]
1,C[C@H]1COc2c(N3CCN(C)CC3)c(F)cc3c(=O)c(C(=O)NCc4cn(CCCCCCCC(=O)O)nn4)cn1c23,> 100
2,C[C@H]1COc2c(N3CCN(C)CC3)c(F)cc3c(=O)c(C(=O)NCc4cn(CCCCCC(=O)O)nn4)cn1c23,> 100
3,C[C@H]1COc2c(N3CCN(C)CC3)c(F)cc3c(=O)c(C(=O)OCc4cn(CCCCCC(=O)O)nn4)cn1c23,> 100

# Tested on: MCF7
# Experiment: Cytotoxicity against human MCF7 cells assessed as reduction in cell viability
# Type: functional, cell-based
row,Structure (SMILES),IC50 [µM]
1,O=C(/C=C(O)/C=C/c1cc2ccccc2[nH]c1=O)/C=C/c1cc2ccccc2[nH]c1=O,69.1
